Where two headings read alike, the source gives them in different places.
Tests used:
[1] = biological target: T1, JAK1/Tyk2 (Homo sapiens, UniProt P23458+P29597); assay: IFNα-induced pSTAT-3 in human whole blood; type: cell-based; conditions: mean
T1 construct: endogenous in cells; host or cells: human whole blood
Experimental: (§1) Compound of Formula I presents low levels of systemic exposure after oral administration. To understand the relationship between systemic exposure and target engagement in human studies, the inhibition of cytokine-induced pSTAT-3 in human whole blood was measured with such compound. In human whole blood, compound of Formula I in a concentration-dependent manner inhibited the JAK1, JAK2, JAK3, and Tyk2 homo- and heterodimers downstream of IFNα (JAK1/Tyk2), thrombopoietin (TPO) (JAK2/JAK2), and IL-21 (JAK1/JAK3) signaling.

[2] = biological target: T2, JAK2/JAK2 (Homo sapiens, UniProt O60674); assay: TPO-induced pSTAT-3 in human whole blood; type: cell-based; conditions: mean
T2 construct: endogenous in cells; host or cells: human whole blood
Experimental: as §1

[3] = system: IL-12/IL-18-induced pSTAT-3 in the colon; assay: IL-12/IL-18-induced colonic pSTAT-3 response in mice after oral dosing; type: in vivo, C57BL/6 mice; conditions: Mus musculus, read-out: Percent Inhibition of colonic pSTAT-3
Description: (§2) To understand the potential of local, enteric-selective JAK inhibitors to inhibit STAT signaling in colon tissue, two pharmacokinetic/pharmacodynamic (PK/PD) studies were developed. The first involved the combined intraperitoneal administration of IL-12 and IL-18 in mice which induces a systemic inflammatory response resulting in activation of the JAK/STAT pathway in colonic tissue which can be monitored by robust phosphorylation of STAT3 three hours after challenge. The second PK/PD model involves the ex vivo stimulation of mouse colon tissue with a cocktail of cytokines (IL-22, IL-6, and IFNα), measuring the inhibition of STAT3 phosphorylation after oral dosing of compound of Formula I.
The combined intraperitoneal administration of IL-12 and IL-18 induces colonic inflammation in mice (Chikano S, et al. Gut 47(6),779-786 (2000) “IL-18 and IL-12 induce intestinal inflammation and fatty liver in mice in an IFN-gamma dependent manner”; Nold-Petry C, et al. Front Immunol. 8, 1531(2017) “Gp96 Antagonist Protects in Murine-Intestinal-Inflammation”). An inflammatory response in colonic tissue can be monitored by robust phosphorylation of STAT3 three hours after challenge with IL 12/IL-18. In this non-GLP study, the effect of the orally administered compound of Formula I was evaluated on STAT3 responses in mouse colonic tissue induced by systemic dosing of both IL-12 and IL 18.
C57BL/6 mice (6 to 8 weeks old) were randomized by weight and assigned to various treatment groups for each of two studies. Mice were challenged intraperitoneally with a combination of IL-12 (250 ng) and IL-18 (1 μg). To examine the effect of compound of Formula I on IL-12/IL-18-induced pSTAT-3 response, groups of mice were orally dosed with compound of Formula I 1 hour prior to IL-12/IL-18 challenge. Three hours after IL-12/IL-18 challenge, mice were euthanized with CO2 asphyxiation, blood was collected via cardiocentesis for PK analysis, and colon tissues were collected for measuring pSTAT-3 response and drug levels. Mice dosed orally with 20% 2-hydroxypropyl-β-cyclodextrin (HP-β-CD) were used as vehicle controls. Two independent studies (S-1 and S-2) were conducted to examine the effect of compound of Formula I on IL-12/IL-18-induced colonic pSTAT-3 response in mice. […] Serum levels were measured at 30 minutes and 4 hours (terminal) after dosing. […] Colon drug levels were measured 4 hours after dosing. […] Colonic exposure of compound of Formula I increased in a dose-dependent fashion. At 25 mg/kg dose, colonic exposure of compound of Formula I was 30814.5±5552.5 ng/g and 18256.5±4118.8 ng/g tissue. […] Oral dosing of compound of Formula I in mice resulted, as shown in other studies, in minimum systemic exposure and lack of consistent dose-dependent pharmacodynamic responses in the blood.
Percent inhibition of colonic pSTAT-3 was determined using log transformed data following outlier removal.

[4] = system: IL-22/IL-6/IFNα-induced pSTAT-3 response; assay: Ex vivo mouse colon explant model (IL-22/IL-6/IFNα) after oral dosing; type: in vivo, C57BL/6 mice; conditions: for inhibition at 0.5 mg/kg: oral 0.5 mg/kg; for inhibition at 2.5 mg/kg: oral 2.5 mg/kg; for inhibition at 5 mg/kg: oral 5 mg/kg; for inhibition at 25 mg/kg: oral 25 mg/kg
Description: as §2
In addition to the IL-12/IL-18 model described above, local efficacy of compound of Formula I was further established in a mouse cytokine mixture (IL-22/IL-6/IFNα) colon explant model. A combination of IL-22, IL-6 and IFNα induced a rapid and robust pSTAT-3 response in mouse colon explants ex vivo 1 hour post challenge. This study aimed at examining the dose response and duration of action of compound of Formula I on IL 22/IL 6/IFNα-induced pSTAT-3 response in an ex vivo mouse colon explant model.
C57BL/6 mice (6 to 8 weeks old) were randomized by weight and assigned to various treatment groups for each study. Mice were dosed orally with indicated doses of compound of Formula I. At the termination of the study, blood was collected via cardiocentesis, serum and washed proximal colon was prepared for PK analysis.
Distal colon explants (approximately 3 mm^2) were either untreated or treated with cytokines (IL 6, IL-22, IFNα at 100 ng/mL each). Following stimulation for 1 hour, tissue was snap-frozen for homogenization and assayed for pSTAT-3.

[5] = SS-1, mice, read-out: inhibition of IL-22/IL-6/IFNα-stimulated pSTAT-3 response in colon explants
[6] = SS-1, mice, read-out: inhibition of basal pSTAT-3 response in colon explants
[7] = SS-2, mice, read-out: inhibition of IL-22/IL-6/IFNα-stimulated pSTAT-3 in colon explants
[8] = SS-2, mice, read-out: inhibition of basal pSTAT-3 in colon explants

T2 sequence (O60674 whole entry): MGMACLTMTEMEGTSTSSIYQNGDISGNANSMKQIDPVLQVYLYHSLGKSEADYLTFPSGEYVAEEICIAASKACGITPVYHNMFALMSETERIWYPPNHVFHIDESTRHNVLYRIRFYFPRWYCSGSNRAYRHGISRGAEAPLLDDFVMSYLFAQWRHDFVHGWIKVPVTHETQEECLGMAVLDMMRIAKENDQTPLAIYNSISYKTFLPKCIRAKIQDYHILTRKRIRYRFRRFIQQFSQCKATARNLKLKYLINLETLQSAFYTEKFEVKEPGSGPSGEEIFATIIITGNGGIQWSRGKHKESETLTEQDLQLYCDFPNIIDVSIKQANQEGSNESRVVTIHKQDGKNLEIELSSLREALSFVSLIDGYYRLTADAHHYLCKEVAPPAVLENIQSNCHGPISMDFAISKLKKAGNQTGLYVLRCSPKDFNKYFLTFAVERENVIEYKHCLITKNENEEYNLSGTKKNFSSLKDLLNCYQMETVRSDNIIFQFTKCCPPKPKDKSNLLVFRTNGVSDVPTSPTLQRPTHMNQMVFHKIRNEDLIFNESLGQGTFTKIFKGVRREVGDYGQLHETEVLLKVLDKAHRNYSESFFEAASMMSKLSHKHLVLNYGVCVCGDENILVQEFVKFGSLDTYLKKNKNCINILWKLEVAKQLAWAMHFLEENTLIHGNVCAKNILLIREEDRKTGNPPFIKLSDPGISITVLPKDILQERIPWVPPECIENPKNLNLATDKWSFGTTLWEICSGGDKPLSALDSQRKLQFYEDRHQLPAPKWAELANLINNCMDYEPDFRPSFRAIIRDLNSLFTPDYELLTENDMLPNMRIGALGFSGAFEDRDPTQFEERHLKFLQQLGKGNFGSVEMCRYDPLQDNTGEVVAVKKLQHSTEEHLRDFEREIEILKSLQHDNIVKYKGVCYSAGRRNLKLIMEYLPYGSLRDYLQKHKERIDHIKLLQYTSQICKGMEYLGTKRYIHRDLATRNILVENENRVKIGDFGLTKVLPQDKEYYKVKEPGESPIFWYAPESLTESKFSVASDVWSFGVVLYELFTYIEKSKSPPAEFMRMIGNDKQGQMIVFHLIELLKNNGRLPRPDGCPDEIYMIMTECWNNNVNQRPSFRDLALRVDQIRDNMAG
T2 sequence (P40238 26-635 partner): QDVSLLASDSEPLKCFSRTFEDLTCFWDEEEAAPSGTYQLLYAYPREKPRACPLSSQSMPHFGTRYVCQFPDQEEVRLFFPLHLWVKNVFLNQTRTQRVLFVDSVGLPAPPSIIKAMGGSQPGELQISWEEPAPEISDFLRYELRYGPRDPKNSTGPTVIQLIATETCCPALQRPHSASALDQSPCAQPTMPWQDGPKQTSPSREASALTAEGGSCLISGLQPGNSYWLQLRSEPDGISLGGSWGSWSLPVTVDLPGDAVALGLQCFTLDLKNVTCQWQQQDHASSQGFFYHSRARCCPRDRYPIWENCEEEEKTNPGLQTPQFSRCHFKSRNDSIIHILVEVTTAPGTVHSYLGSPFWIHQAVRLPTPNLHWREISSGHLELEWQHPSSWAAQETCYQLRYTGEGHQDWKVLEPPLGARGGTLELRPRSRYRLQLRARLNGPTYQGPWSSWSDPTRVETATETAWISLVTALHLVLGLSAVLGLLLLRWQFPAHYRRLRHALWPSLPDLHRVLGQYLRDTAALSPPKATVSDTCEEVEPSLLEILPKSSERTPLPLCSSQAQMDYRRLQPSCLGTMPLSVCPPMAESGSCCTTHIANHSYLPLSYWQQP
T1 sequence (P23458 whole entry): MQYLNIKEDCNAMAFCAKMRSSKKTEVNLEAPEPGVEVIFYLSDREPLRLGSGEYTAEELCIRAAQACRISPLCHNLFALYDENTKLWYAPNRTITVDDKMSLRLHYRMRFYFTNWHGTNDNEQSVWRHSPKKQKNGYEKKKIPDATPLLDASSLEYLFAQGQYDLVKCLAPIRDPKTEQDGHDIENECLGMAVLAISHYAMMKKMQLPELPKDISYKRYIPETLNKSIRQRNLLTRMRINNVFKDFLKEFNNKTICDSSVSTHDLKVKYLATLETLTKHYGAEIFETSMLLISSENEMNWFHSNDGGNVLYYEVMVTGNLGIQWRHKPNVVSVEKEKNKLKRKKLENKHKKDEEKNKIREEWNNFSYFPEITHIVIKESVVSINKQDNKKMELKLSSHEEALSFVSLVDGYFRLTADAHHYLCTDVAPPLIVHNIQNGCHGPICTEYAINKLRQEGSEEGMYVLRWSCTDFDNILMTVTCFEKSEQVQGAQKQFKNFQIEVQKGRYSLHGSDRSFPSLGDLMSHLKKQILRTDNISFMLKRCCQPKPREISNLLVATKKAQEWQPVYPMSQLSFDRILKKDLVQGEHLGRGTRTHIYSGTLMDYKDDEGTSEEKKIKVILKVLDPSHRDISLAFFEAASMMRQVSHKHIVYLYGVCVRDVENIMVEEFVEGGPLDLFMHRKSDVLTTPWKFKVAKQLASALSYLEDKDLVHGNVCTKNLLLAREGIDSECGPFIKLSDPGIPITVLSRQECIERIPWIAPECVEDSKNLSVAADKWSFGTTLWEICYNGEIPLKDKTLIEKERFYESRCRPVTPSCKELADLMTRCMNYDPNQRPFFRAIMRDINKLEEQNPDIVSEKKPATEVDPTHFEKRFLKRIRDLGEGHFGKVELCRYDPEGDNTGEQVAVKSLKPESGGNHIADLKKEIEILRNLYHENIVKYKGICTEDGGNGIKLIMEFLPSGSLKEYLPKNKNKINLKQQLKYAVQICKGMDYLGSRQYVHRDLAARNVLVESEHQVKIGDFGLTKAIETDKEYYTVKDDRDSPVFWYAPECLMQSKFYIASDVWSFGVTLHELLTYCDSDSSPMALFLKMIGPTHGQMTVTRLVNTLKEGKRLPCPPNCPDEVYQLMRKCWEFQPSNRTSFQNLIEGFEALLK
T1 sequence (P29597 whole entry): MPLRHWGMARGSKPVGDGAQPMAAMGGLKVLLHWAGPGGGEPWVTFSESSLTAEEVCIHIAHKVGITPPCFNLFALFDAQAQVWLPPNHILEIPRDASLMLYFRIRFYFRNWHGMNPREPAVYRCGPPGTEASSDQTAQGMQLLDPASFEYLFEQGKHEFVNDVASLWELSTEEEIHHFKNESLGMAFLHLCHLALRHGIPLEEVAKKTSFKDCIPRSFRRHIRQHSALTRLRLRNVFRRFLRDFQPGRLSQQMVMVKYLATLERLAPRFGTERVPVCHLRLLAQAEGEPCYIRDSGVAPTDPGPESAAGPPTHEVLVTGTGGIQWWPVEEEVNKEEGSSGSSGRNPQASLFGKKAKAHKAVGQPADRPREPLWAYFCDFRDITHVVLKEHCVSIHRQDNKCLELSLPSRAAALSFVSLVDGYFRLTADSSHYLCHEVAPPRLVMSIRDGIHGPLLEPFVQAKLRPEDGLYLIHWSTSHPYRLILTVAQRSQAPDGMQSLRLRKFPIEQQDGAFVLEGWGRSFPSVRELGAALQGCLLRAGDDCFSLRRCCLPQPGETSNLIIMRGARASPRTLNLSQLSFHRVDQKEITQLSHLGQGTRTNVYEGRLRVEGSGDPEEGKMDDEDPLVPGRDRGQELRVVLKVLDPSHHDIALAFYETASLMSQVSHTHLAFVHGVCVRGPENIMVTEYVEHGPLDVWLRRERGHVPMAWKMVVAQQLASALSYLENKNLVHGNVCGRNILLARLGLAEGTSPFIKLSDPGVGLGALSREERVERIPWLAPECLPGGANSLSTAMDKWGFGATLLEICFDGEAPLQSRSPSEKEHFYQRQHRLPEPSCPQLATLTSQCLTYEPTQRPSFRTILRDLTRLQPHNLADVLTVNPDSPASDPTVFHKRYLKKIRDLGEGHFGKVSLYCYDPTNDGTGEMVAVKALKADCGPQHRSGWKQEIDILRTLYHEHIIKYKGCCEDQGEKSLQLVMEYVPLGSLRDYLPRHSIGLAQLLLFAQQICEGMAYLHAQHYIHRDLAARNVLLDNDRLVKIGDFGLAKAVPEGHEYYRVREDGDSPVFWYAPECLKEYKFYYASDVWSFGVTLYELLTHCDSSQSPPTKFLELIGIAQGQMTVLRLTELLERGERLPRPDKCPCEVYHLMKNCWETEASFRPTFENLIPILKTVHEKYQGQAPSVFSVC
T1 sequence (P17181 28-557 partner): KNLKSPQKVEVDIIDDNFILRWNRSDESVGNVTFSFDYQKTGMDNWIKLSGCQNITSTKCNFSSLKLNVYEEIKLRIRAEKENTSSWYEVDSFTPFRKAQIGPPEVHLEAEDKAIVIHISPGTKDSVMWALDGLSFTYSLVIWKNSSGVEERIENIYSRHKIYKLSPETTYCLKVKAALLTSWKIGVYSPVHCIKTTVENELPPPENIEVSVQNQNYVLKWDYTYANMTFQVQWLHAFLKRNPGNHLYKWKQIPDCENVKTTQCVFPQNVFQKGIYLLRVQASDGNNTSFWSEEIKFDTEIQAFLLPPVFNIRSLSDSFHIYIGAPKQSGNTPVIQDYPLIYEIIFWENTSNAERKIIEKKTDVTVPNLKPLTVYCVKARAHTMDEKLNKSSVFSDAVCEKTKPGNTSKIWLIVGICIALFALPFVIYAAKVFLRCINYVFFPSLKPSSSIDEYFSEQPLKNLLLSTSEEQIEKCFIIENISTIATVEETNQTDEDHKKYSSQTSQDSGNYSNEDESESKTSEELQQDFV
T1 sequence (P48551 27-515 partner): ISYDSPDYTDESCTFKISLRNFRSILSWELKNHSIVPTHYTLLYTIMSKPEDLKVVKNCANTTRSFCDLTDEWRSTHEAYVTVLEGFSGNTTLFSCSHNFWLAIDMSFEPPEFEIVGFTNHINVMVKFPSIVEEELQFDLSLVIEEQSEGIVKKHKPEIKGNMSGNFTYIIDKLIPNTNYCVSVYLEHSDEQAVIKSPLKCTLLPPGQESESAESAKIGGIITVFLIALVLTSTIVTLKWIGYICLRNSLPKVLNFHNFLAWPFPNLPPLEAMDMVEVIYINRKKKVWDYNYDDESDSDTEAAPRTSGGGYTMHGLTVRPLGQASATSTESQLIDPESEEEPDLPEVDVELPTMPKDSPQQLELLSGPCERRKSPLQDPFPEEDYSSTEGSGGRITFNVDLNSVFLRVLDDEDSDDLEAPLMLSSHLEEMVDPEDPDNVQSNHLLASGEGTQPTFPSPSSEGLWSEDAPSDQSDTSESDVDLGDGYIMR

CC(C)(O)CNC(=O)Cc1nc2cnc3[nH]ccc3c2n1[C@H]1CC[C@H](CC#N)CC1 [Compound of Formula I, 2-(1-((1r,4r)-4-(Cyanomethyl)cyclohexyl)-1,6-dihydroimidazo[4,5-d]pyrrolo[2,3-b]pyridin-2-yl)-N-(2-hydroxy-2-methylpropyl)acetamide]
IC50 [1]: 105 nM | IC50 [2]: 490 nM | inhibition at 10 mg/kg ([3]; Study S-1, oral 10 mg/kg): 3.9% | inhibition at 25 mg/kg ([3]; Study S-1, oral 25 mg/kg): 25.8% | inhibition at 50 mg/kg ([3]; Study S-1, oral 50 mg/kg): 49.7% | inhibition at 10 mg/kg ([3]; Study S-2, oral 10 mg/kg): 33.1% | inhibition at 25 mg/kg ([3]; Study S-2, oral 25 mg/kg): 61.2% | inhibition at 50 mg/kg ([3]; Study S-2, oral 50 mg/kg): 66.1% | inhibition at 0.5 mg/kg [4, 5]: 42.7% | inhibition at 0.5 mg/kg [4, 6]: 54.3% | inhibition at 2.5 mg/kg [4, 5]: 74.9% | inhibition at 2.5 mg/kg [4, 6]: 74.4% | inhibition at 5 mg/kg [4, 5]: 83.8% | inhibition at 5 mg/kg [4, 6]: 78.6% | inhibition at 25 mg/kg [4, 5]: 93.8% | inhibition at 25 mg/kg [4, 6]: 89.5% | inhibition at 0.5 mg/kg [4, 7]: 5.5% | inhibition at 0.5 mg/kg [4, 8]: 36.7% | inhibition at 2.5 mg/kg [4, 7]: 62% | inhibition at 2.5 mg/kg [4, 8]: 66.2% | inhibition at 5 mg/kg [4, 7]: 68.1% | inhibition at 5 mg/kg [4, 8]: 71.3% | inhibition at 25 mg/kg [4, 7]: 89.8% | inhibition at 25 mg/kg [4, 8]: 83.8%

Reference: patent US12390451B2, “Small molecule inhibitor of the JAK family of kinases” (Janssen Pharmaceutica NV, priority 2021, dated 2025)
